# Test results taken from patent publication US20230372313A1, “METHODS FOR REDUCING GLYCOSPHINGOLIPID CONCENTRATION IN BRAIN TISSUE AND METHODS OF TREATMENT OF NEURODEGENERATIVE DISEASES INVOLVING THE SAME” (GENZYME CORPORATION, priority 2020, published 2023).
# Read-outs that look alike come from different tables or passages of the source.
# How the values were obtained:
# [1] = Plasma pharmacokinetics of Compound 2 in PD participants (LC-MS/MS); format: in vivo, human; conditions: plasma, plasma; for Tmax / AUC(0-t) / Cmax: human, po, 15 mg; for Tmax: read-out: tmax, median
# Description: (§1) Participants were randomised to 3 doses of once-daily orally administered Compound 2 or placebo, in sequential cohort design, and were followed up to 36 weeks (52 weeks for Japanese participants). Participants in the low-dose group received 4 mg of Compound 2 as a once daily oral dose; participants in the mid-dose group received 8 mg of Compound 2 a once daily oral dose; and participants in the high-dose group received 15 mg of Compound 2 a once daily oral dose.
# Analyses were based on all available data from participants who enrolled in part 1 of the trial and were randomised to receive either Compound 2 or placebo for up to 52 weeks for Japanese participants and 36 weeks for the ROW population. As part 1 was an exploratory, dose-escalation study, the sample size was not based on a statistical power calculation. Participants included in the primary safety analyses were those who were randomized and received at least one dose of Compound 2 or placebo. A data monitoring committee was responsible for overseeing the safety of patients and the risk/benefit ratio throughout the study. Duration of exposure to Compound 2 was different among the doses, as per the sequential cohort design, with the low- and high-dose cohorts commencing the study first and last, respectively. For pharmacokinetics, plasma parameters were calculated using noncompartmental methods, from plasma Compound 2 concentrations obtained after single dose administration. AUC0-24 and AUC0-48 were calculated using the trapezoidal method over a predefined time period of 24 hours or 48 hours, respectively. CLss/F was calculated using the following equation: CLss/F=Dose/AUCτ, where τ is the dosing interval. For pharmacodynamics, percent reduction of plasma or CSF GL-1 from baseline was calculated as (value−baseline)/baseline×100. Formal statistical testing was not conducted on MDS-UPDRS scale assessments.
# (§2) The secondary outcome was to evaluate the pharmacokinetic profile of Compound 2 in plasma and cerebrospinal fluid (CSF) over a 4-week period. Plasma pharmacokinetic parameters included maximum plasma concentration (Cmax), time to Cmax (tmax), and area under the plasma concentration versus time curve from 0 to 24 h (AUC0-24). All parameters were assessed at Week 0 and Week 4 after treatment. In addition, AUC0-48 was assessed at Week 0, trough plasma concentration observed just before treatment administration during repeated dosing (Ctrough) was assessed at Weeks 2, 4, and 8 (FIG. 3), and total systemic clearance from plasma at steady state (CLSS/F) was assessed at Week 4. Plasma samples were collected at 1 hour pre-dose and 1, 2, 4, 8, 24, and 48 hours postdose. Compound 2 concentration in plasma was determined using a liquid chromatography tandem mass spectrometry method with a lower limit of quantification of 0.500 ng/mL. CSF samples were collected by lumbar puncture during the screening period (within 14 days prior to randomisation) or on the day of randomisation, and at Week 4, within 2 to 4 hours postdose. Compound 2 concentration in CSF was determined using a liquid chromatography tandem mass spectrometry method with a lower limit of quantification of 0.100 ng/mL.
# [2] = CSF concentration of Compound 2 in PD participants (LC-MS/MS); format: in vivo, human; conditions: for CSF concentration, mean: week 4, 2-4 h postdose; for CSF concentration, Fold increase vs low dose: week 4
# Description: as §1, §2
# [3] = Day 1, Japan, High 15 mg oral, n = 3
# [4] = Week 4, ROW, High 15 mg once daily oral, n = 4
# [5] = Week 4, Japan, High 15 mg once daily oral, n = 2
# [6] = Week 4, Japan, High 15 mg vs Low 4 mg
# [7] = Week 4, Japan, Low 4 mg once daily oral, n = 1
# [8] = Week 4, Japan, Mid 8 mg once daily oral, n = 3
# [9] = Week 4, Japan, Mid 8 mg vs Low 4 mg
# [10] = Week 4, ROW, High 15 mg vs Low 4 mg
# [11] = Week 4, ROW, Low 4 mg once daily oral, n = 4
# [12] = Week 4, ROW, Mid 8 mg once daily oral, n = 5
# [13] = Week 4, ROW, Mid 8 mg vs Low 4 mg
compound,measurement,setting,value
"CC(C)(NC(=O)O[C@@H]1CN2CCC1CC2)c1csc(-c2ccc(F)cc2)n1 [Compound 2, (S)-quinuclidin-3-yl (2-(2-(4-fluorophenyl)thiazol-4-yl)propan-2-yl)carbamate]",Tmax,[1]; [3],4.1 h
same,AUC(0-t),"[1]; Day 1, ROW, High 15 mg oral, n = 4, read-out: AUC0-24, Geometric mean",868 ng·h/mL
same,AUC(0-t),"[1]; Day 1, ROW, High 15 mg oral, n = 4, read-out: AUC0-24, mean",873 ng·h/mL
same,AUC(0-t),"[1]; Day 1, ROW, High 15 mg oral, n = 4, read-out: AUC0-48, Geometric mean",1440 ng·h/mL
same,AUC(0-t),"[1]; Day 1, ROW, High 15 mg oral, n = 4, read-out: AUC0-48, mean",1450 ng·h/mL
same,Cmax,"[1]; Day 1, ROW, High 15 mg oral, n = 4, read-out: Cmax, Geometric mean",47.1 ng/mL
same,Cmax,"[1]; Day 1, ROW, High 15 mg oral, n = 4, read-out: Cmax, mean",47.4 ng/mL
same,Tmax,"[1]; Day 1, ROW, High 15 mg oral, n = 4",3.94 h
same,AUC(0-t),"[1]; Week 4, Japan, High 15 mg once daily oral, n = 2, read-out: AUC0-24, Geometric mean",3140 ng·h/mL
same,AUC(0-t),"[1]; Week 4, Japan, High 15 mg once daily oral, n = 2, read-out: AUC0-24, mean",3150 ng·h/mL
same,Cmax,"[1]; Week 4, Japan, High 15 mg once daily oral, n = 3, read-out: Cmax, Geometric mean",144 ng/mL
same,Cmax,"[1]; Week 4, Japan, High 15 mg once daily oral, n = 3, read-out: Cmax, mean",145 ng/mL
same,Tmax,"[1]; Week 4, Japan, High 15 mg once daily oral, n = 3",2.1 h
same,AUC(0-t),"[1]; Week 4, ROW, High 15 mg once daily oral, n = 4, read-out: AUC0-24, Geometric mean",2490 ng·h/mL
same,AUC(0-t),"[1]; Week 4, ROW, High 15 mg once daily oral, n = 4, read-out: AUC0-24, mean",2510 ng·h/mL
same,Cmax,"[1]; Week 4, ROW, High 15 mg once daily oral, n = 4, read-out: Cmax, Geometric mean",135 ng/mL
same,Cmax,"[1]; Week 4, ROW, High 15 mg once daily oral, n = 4, read-out: Cmax, mean",136 ng/mL
same,Tmax,[1]; [4],2.89 h
same,"Cmax, Geometric mean",[1]; [3],53.3 ng/mL
same,"CLss/F, Geometric mean",[1]; [5],4770 mL/h
same,"CLss/F, mean",[1]; [5],4780 mL/h
same,"AUC0-24, Fold increase vs low dose",[1]; [6],2.78 fold
same,"CLss/F, Fold increase vs low dose",[1]; [6],1.35 fold
same,"Cmax (geometric mean), Fold increase vs low-dose",[1]; [6],2.56 fold
same,"CLss/F, Geometric mean",[1]; [7],3540 mL/h
same,"CLss/F, mean",[1]; [7],3540 mL/h
same,"CLss/F, Geometric mean",[1]; [8],4930 mL/h
same,"CLss/F, mean",[1]; [8],5010 mL/h
same,"Cmax, mean",[1]; [8],83.7 ng/mL
same,"AUC0-24, Fold increase vs low dose",[1]; [9],1.43 fold
same,"CLss/F, Fold increase vs low dose",[1]; [9],1.39 fold
same,"Cmax (geometric mean), Fold increase vs low-dose",[1]; [9],1.47 fold
same,"CLss/F, Geometric mean",[1]; [4],6030 mL/h
same,"CLss/F, mean",[1]; [4],6100 mL/h
same,"AUC0-24, Fold increase vs low dose",[1]; [10],3.26 fold
same,"CLss/F, Fold increase vs low dose",[1]; [10],1.15 fold
same,"Cmax (geometric mean), Fold increase vs low-dose",[1]; [10],3.29 fold
same,"CLss/F, Geometric mean",[1]; [11],5240 mL/h
same,"CLss/F, mean",[1]; [11],5270 mL/h
same,"CLss/F, Geometric mean",[1]; [12],5370 mL/h
same,"CLss/F, mean",[1]; [12],5450 mL/h
same,"AUC0-24, Fold increase vs low dose",[1]; [13],1.95 fold
same,"CLss/F, Fold increase vs low dose",[1]; [13],1.02 fold
same,"Cmax (geometric mean), Fold increase vs low-dose",[1]; [13],1.85 fold
same,Ctrough versus dose,"[1]; Weeks 2, 4, and 8 (FIG. 3)",increased in a dose-proportional manner
same,"CSF concentration, mean","[2]; Japan, High 15 mg once daily oral, n = 3",10.1 ng/mL
same,"CSF concentration, mean","[2]; Japan, Low 4 mg once daily oral, n = 3",2.11 ng/mL
same,"CSF concentration, mean","[2]; Japan, Mid 8 mg once daily oral, n = 3",4.33 ng/mL
same,"CSF concentration, mean","[2]; ROW, High 15 mg once daily oral, sample not collected for 1 of n = 4",5.96 ng/mL
same,"CSF concentration, mean","[2]; ROW, Low 4 mg once daily oral, 1 of n = 4 not included",1.85 ng/mL
same,"CSF concentration, mean","[2]; ROW, Mid 8 mg once daily oral, 2 of n = 5 not included",3.15 ng/mL
same,"CSF concentration, Fold increase vs low dose","[2]; Japan, High 15 mg vs Low 4 mg",4.79 fold
same,"CSF concentration, Fold increase vs low dose","[2]; Japan, Mid 8 mg vs Low 4 mg",2.05 fold
same,"CSF concentration, Fold increase vs low dose","[2]; ROW, High 15 mg vs Low 4 mg",3.22 fold
same,"CSF concentration, Fold increase vs low dose","[2]; ROW, Mid 8 mg vs Low 4 mg",1.70 fold
same,increase of Compound 2 concentration in CSF with dose,"[2]; Japanese and ROW cohorts, 4, 8, 15 mg",close to dose-proportional manner
